Test results taken from patent US20230081426A1, “COMPOUNDS AND METHODS FOR KRAS MODULATION AND INDICATIONS THEREFOR” (Plexxikon Inc., priority 2020, published 2023).

Legend:
[1] = target: T1, G12D-mutant human KRAS (amino acid residues 1-188) (Homo sapiens, UniProt P01116, G12D); experiment: KRAS Binding Disruption Assay (AlphaScreen; biotinylated KRpep-2d analogue or RAF1-RBD), G12D; conditions: KRAS G12D; geometric mean; read-out: KRAS GMean IC50 (uM) MUTATION: G12D
T1 construct: G12D or G12C-mutant human KRAS (amino acid residues 1-188) with FLAG tag; made in house; host or cells: E. coli
Procedure, shortened: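 AlphaScreen readout: signal falls as compound displaces biotinylated KRpep-2d analogue or RAF1-RBD from mutant KRAS. Both partners at 5-20 nM, 1 h binding at 25° C, then 10 μg/mL Anti-Flag acceptor and streptavidin donor beads for 1 h. IC50 by nonlinear regression of % inhibition.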

[2] = target: T2, G12V-mutant human KRAS (amino acid residues 1-188) (Homo sapiens, UniProt P01116, G12V); experiment: KRAS Binding Competition Assay (AlphaScreen; biotinylated KRpep-2d analogue), G12V; conditions: geometric mean, read-out: KRAS GMean IC50 (uM) MUTATION: G12V
T2 construct: G12V-mutant human KRAS (amino acid residues 1-188) with FLAG tag was purified from E. coli; made in house; host or cells: E. coli

Structure (SMILES) | IC50 [1] | IC50 [2]
CN1CCCC1COc1nc(N2C[C@H]3CC[C@@H](C2)N3C(=O)NC2CCN(C3CCCCC3)C2)c2ccc(-c3cc(O)cc4ccccc34)c(F)c2n1 (stereo partly drawn) [P-0419, (1R,5S)-N-(1-cyclohexylpyrrolidin-3-yl)-3-(8-fluoro-7-(3-hydroxynaphthalen-1-yl)-2-((1-methylpyrrolidin-2-yl)methoxy)quinazolin-4-yl)-3,8-diazabicyclo[3.2.1]octane-8-carboxamide] | 0.0001 to 10 µM | 10 to 100 µM
CONC(=O)N1[C@@H]2CC[C@H]1CN(c1nc(OCC3CCCN3C)nc3c(F)c(-c4cc(O)cc5ccccc45)ccc13)C2 (stereo partly drawn) [P-0420, (1R,5S)-3-(8-fluoro-7-(3-hydroxynaphthalen-1-yl)-2-((1-methylpyrrolidin-2-yl)methoxy)quinazolin-4-yl)-N-methoxy-3,8-diazabicyclo[3.2.1]octane-8-carboxamide] | 0.0001 to 10 µM | 10 to 100 µM
CN1CCCC1COc1nc(N2C[C@H]3CC[C@@H](C2)N3C(=O)NC2CN3CCC2CC3)c2ccc(-c3cc(O)cc4ccccc34)c(F)c2n1 (stereo partly drawn) [P-0421, (1R,5S)-3-(8-fluoro-7-(3-hydroxynaphthalen-1-yl)-2-((1-methylpyrrolidin-2-yl)methoxy)quinazolin-4-yl)-N-(quinuclidin-3-yl)-3,8-diazabicyclo[3.2.1]octane-8-carboxamide] | 0.0001 to 10 µM | 10 to 100 µM
CN1CCCC1COc1nc(N2C[C@H]3CC[C@@H](C2)N3C(=O)NO)c2ccc(-c3cc(O)cc4ccccc34)c(F)c2n1 (stereo partly drawn) [P-0422, (1R,5S)-3-(8-fluoro-7-(3-hydroxynaphthalen-1-yl)-2-((1-methylpyrrolidin-2-yl)methoxy)quinazolin-4-yl)-N-hydroxy-3,8-diazabicyclo[3.2.1]octane-8-carboxamide] | 0.0001 to 10 µM | 0.0001 to 10 µM
CN1CCCC1COc1nc(N2C[C@H]3CC[C@@H](C2)N3C(=O)NCC(N)=O)c2ccc(-c3cc(O)cc4ccccc34)c(F)c2n1 (stereo partly drawn) [P-0423, (1R,5S)-N-(2-amino-2-oxoethyl)-3-(8-fluoro-7-(3-hydroxynaphthalen-1-yl)-2-((1-methylpyrrolidin-2-yl)methoxy)quinazolin-4-yl)-3,8-diazabicyclo[3.2.1]octane-8-carboxamide] | 0.0001 to 10 µM | 0.0001 to 10 µM
CN1CCC[C@H]1COc1nc(N2C[C@H]3CC[C@@H](C2)N3C(=O)[C@@H](N)CO)c2ccc(-c3cc(O)cc4ccccc34)c(F)c2n1 [P-0424, (S)-2-amino-1-((1R,5S)-3-(8-fluoro-7-(3-hydroxynaphthalen-1-yl)-2-(((S)-1-methylpyrrolidin-2-yl)methoxy)quinazolin-4-yl)-3,8-diazabicyclo[3.2.1]octan-8-yl)-3-hydroxypropan-1-one] | 0.0001 to 10 µM | 10 to 100 µM
CN1CCC[C@H]1COc1nc(N2C[C@H]3CC[C@@H](C2)N3C(=O)[C@@H]2C[C@@H](O)CN2)c2ccc(-c3cc(O)cc4ccccc34)c(F)c2n1 [P-0425, ((1R,5S)-3-(8-fluoro-7-(3-hydroxynaphthalen-1-yl)-2-(((S)-1-methylpyrrolidin-2-yl)methoxy)quinazolin-4-yl)-3,8-diazabicyclo[3.2.1]octan-8-yl)((2S,4R)-4-hydroxypyrrolidin-2-yl)methanone] | 0.0001 to 10 µM | 10 to 100 µM
CNCC(=O)N1[C@@H]2CC[C@H]1CN(c1nc(OC[C@@H]3CCCN3C)nc3c(F)c(-c4cc(O)cc5ccccc45)ccc13)C2 [P-0426, 1-((1R,5S)-3-(8-fluoro-7-(3-hydroxynaphthalen-1-yl)-2-(((S)-1-methylpyrrolidin-2-yl)methoxy)quinazolin-4-yl)-3,8-diazabicyclo[3.2.1]octan-8-yl)-2-(methylamino)ethan-1-one] | 0.0001 to 10 µM | 10 to 100 µM
CN1CCC[C@H]1COc1nc(N2C[C@H]3CC[C@@H](C2)N3CC(=O)N2CCC(N)CC2)c2ccc(-c3cc(O)cc4ccccc34)c(F)c2n1 [P-0427, 1-(4-aminopiperidin-1-yl)-2-((1R,5S)-3-(8-fluoro-7-(3-hydroxynaphthalen-1-yl)-2-(((S)-1-methylpyrrolidin-2-yl)methoxy)quinazolin-4-yl)-3,8-diazabicyclo[3.2.1]octan-8-yl)ethan-1-one] | 10 to 100 µM | 100 to 1000 µM
CN1CCC[C@H]1COc1nc(N2C[C@H]3CC[C@@H](C2)N3CC(=O)N2CCOCC2)c2ccc(-c3cc(O)cc4ccccc34)c(F)c2n1 [P-0428, 2-((1R,5S)-3-(8-fluoro-7-(3-hydroxynaphthalen-1-yl)-2-(((S)-1-methylpyrrolidin-2-yl)methoxy)quinazolin-4-yl)-3,8-diazabicyclo[3.2.1]octan-8-yl)-1-morpholinoethan-1-one] | 0.0001 to 10 µM | 100 to 1000 µM
CN1CCC[C@H]1COc1nc(N2C[C@H]3CC[C@@H](C2)N3C2CNC2)c2ccc(-c3cc(O)cc4ccccc34)c(F)c2n1 [P-0430, 4-(4-((1R,5S)-8-(azetidin-3-yl)-3,8-diazabicyclo[3.2.1]octan-3-yl)-8-fluoro-2-(((S)-1-methylpyrrolidin-2-yl)methoxy)quinazolin-7-yl)naphthalen-2-ol] | 10 to 100 µM | 100 to 1000 µM
OCCc1nc(N2C[C@H]3CC[C@@H](C2)N3)c2ccc(-c3cc(O)cc4ccccc34)c(F)c2n1 [P-0431, 4-(4-((1R,5S)-3,8-diazabicyclo[3.2.1]octan-3-yl)-8-fluoro-2-(2-hydroxyethyl)quinazolin-7-yl)naphthalen-2-ol] | 0.0001 to 10 µM | 10 to 100 µM
CS(=O)(=O)CC(=O)N1[C@@H]2CC[C@H]1CN(c1nc(OCC34CCCN3CCC4)nc3c(F)c(-c4cc(O)cc5ccccc45)ccc13)C2 [P-0432, 1-((1R,5S)-3-(8-fluoro-7-(3-hydroxynaphthalen-1-yl)-2-((tetrahydro-1H-pyrrolizin-7a(5H)-yl)methoxy)quinazolin-4-yl)-3,8-diazabicyclo[3.2.1]octan-8-yl)-2-(methylsulfonyl)ethan-1-one] | 0.0001 to 10 µM | 0.0001 to 10 µM
O=C(Cc1n[nH]c2ccccc12)N1[C@@H]2CC[C@H]1CN(c1nc(OCC34CCCN3CCC4)nc3c(F)c(-c4cc(O)cc5ccccc45)ccc13)C2 [P-0433, 1-((1R,5S)-3-(8-fluoro-7-(3-hydroxynaphthalen-1-yl)-2-((tetrahydro-1H-pyrrolizin-7a(5H)-yl)methoxy)quinazolin-4-yl)-3,8-diazabicyclo[3.2.1]octan-8-yl)-2-(1H-indazol-3-yl)ethan-1-one] | 0.0001 to 10 µM | 0.0001 to 10 µM
CN1CCN(CCCS(=O)(=O)N2[C@@H]3CC[C@H]2CN(c2nc(OC[C@@H]4CCCN4C)nc4c(F)c(-c5cc(O)cc6ccccc56)ccc24)C3)CC1 [P-0434, 4-(8-fluoro-4-((1R,5S)-8-((3-(4-methylpiperazin-1-yl)propyl)sulfonyl)-3,8-diazabicyclo[3.2.1]octan-3-yl)-2-(((S)-1-methylpyrrolidin-2-yl)methoxy)quinazolin-7-yl)naphthalen-2-ol] | 0.0001 to 10 µM | 10 to 100 µM
Cc1cccc2c1N(c1ccc3c(N4C[C@H]5CC[C@@H](C4)N5)nc(OC[C@@H]4CCCN4C)nc3c1F)CCC2 [P-0435, 4-((1R,5S)-3,8-diazabicyclo[3.2.1]octan-3-yl)-8-fluoro-7-(8-methyl-3,4-dihydroquinolin-1(2H)-yl)-2-(((S)-1-methylpyrrolidin-2-yl)methoxy)quinazoline] | 0.0001 to 10 µM | 10 to 100 µM
